Laboratory results taken from ChEMBL document CHEMBL5108023, “Design, synthesis and biological evaluation of rhein-piperazine-dithiocarbamate hybrids as potential anticancer agents” (Eur J Med Chem, 2022).
In brackets after ≈: the same amount, converted by molar mass. Blank lines part the entries; values can stand above or below the compound they belong to.

Tests used:
[1] = tested on: A549; assay: cells; details: Homo sapiens, A549, 48 h
[2] = Selectivity index, ratio IC50 for antiproliferative activity against human WI-38 cells over IC50 for antiproliferative activity against human A549 cells; assay type: toxicity, cell-based; details: WI-38 cells and A549 cells, read-out: Ratio IC50
[3] = tested on: WI-38; assay: Antiproliferative activity against human WI-38 cells measured after 48 hrs by MTT assay; assay type: functional, cell-based; details: WI-38, 48 h
[4] = Acute toxicity in female ICR mouse assessed as changes in AST level in liver at 25 mg/kg; assay type: organism-based; details: in vivo
[5] = Acute toxicity in female ICR mouse assessed as pathological changes in kidney at 25 mg/kg measured by H and E staining method; assay type: organism-based; details: in vivo
[6] = Acute toxicity in female ICR mouse assessed as pathological changes in lung at 25 mg/kg measured by H and E staining method; assay type: organism-based; details: in vivo
[7] = Acute toxicity in female ICR mouse assessed as pathological changes in heart at 25 mg/kg measured by H and E staining method; assay type: organism-based; details: in vivo
[8] = Acute toxicity in female ICR mouse assessed as changes in creatine kinase (CK) level in heart at 25 mg/kg; assay type: organism-based; details: in vivo
[9] = Acute toxicity in female ICR mouse assessed as pathological changes in intestine at 25 mg/kg measured by H and E staining method; assay type: organism-based; details: in vivo
[10] = Acute toxicity in female ICR mouse assessed as pathological changes in liver at 25 mg/kg measured by H and E staining method; assay type: organism-based; details: in vivo
[11] = Acute toxicity in female ICR mouse assessed as pathological changes in spleen at 25 mg/kg measured by H and E staining method; assay type: organism-based; details: in vivo
[12] = Acute toxicity in female ICR mouse assessed as changes in ALT level in liver at 25 mg/kg; assay type: organism-based; details: in vivo
[13] = tested on: Huh-7; assay: Antiproliferative activity against human Huh-7 cells measured after 48 hrs by MTT assay; assay type: functional, cell-based; details: Huh-7, 48 h
[14] = tested on: SK-OV-3; assay: Antiproliferative activity against human SK-OV-3 cells measured after 48 hrs by MTT assay; assay type: functional, cell-based; details: SK-OV-3, 48 h
[15] = Acute toxicity in female ICR mouse assessed as pathological changes in liver at 6.25 to 50 mg/kg measured by H and E staining method; assay type: organism-based; details: in vivo, dose 6.25-50 mg/kg
[16] = tested on: PC-9; assay: Induction of apoptosis in human PC-9 cells assessed as total apoptotic cells at 3 ug/ml measured after 48 hrs by AnnexinV-FITC/PI staining based flow cytometry (reference value: 6.99%); assay type: functional; details: dose 3 µg/ml
[17] = tested on: PC-9; assay: Antiproliferative activity against human PC-9 cells measured after 48 hrs by MTT assay; assay type: functional, cell-based; details: PC-9, 48 h
[18] = Acute toxicity in female ICR mouse assessed as pathological changes in kidney at 6.25 to 50 mg/kg measured by H and E staining method; assay type: organism-based; details: in vivo, dose 6.25-50 mg/kg
[19] = Acute toxicity in female ICR mouse assessed as pathological changes in spleen at 6.25 to 50 mg/kg measured by H and E staining method; assay type: organism-based; details: in vivo, dose 6.25-50 mg/kg
[20] = tested on: PC-9; assay: Induction of apoptosis in human PC-9 cells assessed as total apoptotic cells at 10 ug/ml measured after 48 hrs by AnnexinV-FITC/PI staining based flow cytometry (reference value: 6.99%); assay type: functional; details: dose 10 µg/ml
[21] = Acute toxicity in female ICR mouse assessed as pathological changes in heart at 6.25 to 50 mg/kg measured by H and E staining method; assay type: organism-based; details: in vivo, dose 6.25-50 mg/kg
[22] = tested on: 786-0; assay: Antiproliferative activity against human 786-0 cells measured after 48 hrs by MTT assay; assay type: functional, cell-based; details: 786-0, 48 h
[23] = tested on: PC-9; assay: Induction of apoptosis in human PC-9 cells assessed as total apoptotic cells at 100 ug/ml measured after 48 hrs by AnnexinV-FITC/PI staining based flow cytometry (reference value: 6.99%); assay type: functional; details: dose 100 µg/ml
[24] = Acute toxicity in female ICR mouse assessed as changes in creatine kinase (CK) level in heart at 6.25 to 50 mg/kg; assay type: organism-based; details: in vivo, dose 6.25-50 mg/kg
[25] = Acute toxicity in female ICR mouse assessed as changes in AST level in liver at 6.25 to 50 mg/kg; assay type: organism-based; details: in vivo, dose 6.25-50 mg/kg
[26] = tested on: Calu-1; assay: Antiproliferative activity against human Calu-1 cells measured after 48 hrs by MTT assay; assay type: functional, cell-based; details: Calu-1, 48 h
[27] = tested on: SK-BR-3; assay: Antiproliferative activity against human SK-BR-3 cells measured after 48 hrs by MTT assay; assay type: functional, cell-based; details: SK-BR-3, 48 h
[28] = Acute toxicity in female ICR mouse assessed as pathological changes in lung at 6.25 to 50 mg/kg measured by H and E staining method; assay type: organism-based; details: in vivo, dose 6.25-50 mg/kg
[29] = tested on: NCI-H460; assay: Antiproliferative activity against human NCI-H460 cells measured after 48 hrs by MTT assay; assay type: functional, cell-based; details: NCI-H460, 48 h
[30] = tested on: HeLa; assay: Antiproliferative activity against human HeLa cells measured after 48 hrs by MTT assay; assay type: functional, cell-based
[31] = Acute toxicity in female ICR mouse assessed as pathological changes in intestine at 6.25 to 50 mg/kg measured by H and E staining method; assay type: organism-based; details: in vivo, dose 6.25-50 mg/kg
[32] = tested on: HCT-116; assay: Antiproliferative activity against human HCT-116 cells measured after 48 hrs by MTT assay; assay type: functional, cell-based; details: HCT-116, 48 h
[33] = Acute toxicity in female ICR mouse assessed as changes in ALT level in liver at 6.25 to 50 mg/kg; assay type: organism-based; details: in vivo, dose 6.25-50 mg/kg

SMILES: O=C(O)c1cc(O)c2c(c1)C(=O)c1cccc(O)c1C2=O [RHEIN]
IC50 [1]: 77.1 µg/mL (≈ 271 µM)
Activity [4]: Non-Toxic
Activity [5]: Non-Toxic
Activity [6]: Non-Toxic
Activity [7]: Non-Toxic
Activity [8]: Non-Toxic
Activity [9]: Non-Toxic
Activity [10]: Non-Toxic
selectivity ratio [2]: 1
Activity [11]: Non-Toxic
IC50 [3]: 92.3 µg/mL (≈ 325 µM)
Activity [12]: Non-Toxic

SMILES: O=C1c2cccc(O)c2C(=O)c2c(O)cc(C(=O)N3CCN(C(=S)SCc4ccc(Cl)cc4)CC3)cc21
IC50 [1]: > 100 µg/mL
IC50 [3]: 72.5 µg/mL (≈ 131 µM)

SMILES: O=C1c2cccc(O)c2C(=O)c2c(O)cc(C(=O)N3CCN(C(=S)SCc4ccc(F)cc4)CC3)cc21
IC50 [1]: 36.4 µg/mL (≈ 67.8 µM)
selectivity ratio [2]: 3
IC50 [3]: > 100 µg/mL

SMILES: O=C(CSC(=S)N1CCN(C(=O)c2cc(O)c3c(c2)C(=O)c2cccc(O)c2C3=O)CC1)OCc1ccccc1
IC50 [1]: 29.8 µg/mL (≈ 51.7 µM)
selectivity ratio [2]: 3
IC50 [3]: > 100 µg/mL

SMILES: COc1cccc2c1C(=O)c1c(O)c3c(c(O)c1C2=O)C[C@@](O)(C(=O)CO)C[C@@H]3O[C@H]1C[C@H](N)[C@H](O)[C@H](C)O1 [DOXORUBICIN]
IC50 [1]: 0.665 µg/mL (≈ 1.22 µM)
IC50 [3]: 0.079 µg/mL (≈ 0.145 µM)

SMILES: O=C1c2cccc(O)c2C(=O)c2c(O)cc(C(=O)N3CCN(C(=S)SCCCOc4ccccc4)CC3)cc21
IC50 [1]: > 100 µg/mL
selectivity ratio [2]: 1
IC50 [3]: > 100 µg/mL

SMILES: CCOC(=O)CCCSC(=S)N1CCN(C(=O)c2cc(O)c3c(c2)C(=O)c2cccc(O)c2C3=O)CC1
IC50 [13]: 23.8 µg/mL (≈ 44 µM)
IC50 [14]: 35.5 µg/mL (≈ 65.4 µM)
Activity [15]: Non-Toxic
Activity [16]: 13.22%
IC50 [17]: 10.8 µg/mL (≈ 19.9 µM)
IC50 [1]: 10.9 µg/mL (≈ 20.1 µM)
Activity [18]: Non-Toxic
Activity [19]: Non-Toxic
Activity [20]: 28.97%
Activity [21]: Non-Toxic
IC50 [22]: 30.1 µg/mL (≈ 55.6 µM)
Activity [23]: 47.06%
Activity [24]: Non-Toxic
selectivity ratio [2]: 5
Activity [25]: Non-Toxic
IC50 [26]: 23.8 µg/mL (≈ 43.8 µM)
IC50 [27]: 52 µg/mL (≈ 95.8 µM)
Activity [28]: Non-Toxic
IC50 [29]: 23 µg/mL (≈ 42.4 µM)
IC50 [30]: 30.6 µg/mL (≈ 56.4 µM)
IC50 [3]: 55.3 µg/mL (≈ 102 µM)
Activity [31]: Non-Toxic
IC50 [32]: 25.9 µg/mL (≈ 47.7 µM)
Activity [33]: Non-Toxic

SMILES: O=C1c2cccc(O)c2C(=O)c2c(O)cc(C(=O)N3CCN(C(=S)SCc4ccc(C(F)(F)F)cc4)CC3)cc21
IC50 [1]: > 100 µg/mL
selectivity ratio [2]: 1
IC50 [3]: > 100 µg/mL

SMILES: Nc1ccn([C@@H]2O[C@H](CO)[C@@H](O)[C@@H]2O)c(=O)n1 [CYTARABINE]
IC50 [1]: 49.3 µg/mL (≈ 203 µM)
selectivity ratio [2]: 2
IC50 [3]: > 100 µg/mL

Now from value to compound, other results behind:

IC50 [1]: 78.6 µg/mL (≈ 152 µM)
SMILES: O=C1c2cccc(O)c2C(=O)c2c(O)cc(C(=O)N3CCN(C(=S)SCc4ccccc4)CC3)cc21
selectivity ratio [2]: 1
IC50 [3]: 48.8 µg/mL (≈ 94 µM)

IC50 [1]: 31 µg/mL (≈ 61.9 µM)
SMILES: COC(=O)CSC(=S)N1CCN(C(=O)c2cc(O)c3c(c2)C(=O)c2cccc(O)c2C3=O)CC1
selectivity ratio [2]: 2
IC50 [3]: 67 µg/mL (≈ 134 µM)

IC50 [1]: > 100 µg/mL
SMILES: Cc1ccc(CSC(=S)N2CCN(C(=O)c3cc(O)c4c(c3)C(=O)c3cccc(O)c3C4=O)CC2)cc1
selectivity ratio [2]: 1
IC50 [3]: > 100 µg/mL

IC50 [1]: 40.5 µg/mL (≈ 86.5 µM)
SMILES: C=CCSC(=S)N1CCN(C(=O)c2cc(O)c3c(c2)C(=O)c2cccc(O)c2C3=O)CC1
selectivity ratio [2]: 3
IC50 [3]: > 100 µg/mL
